Data set [1] has as its system Hepatitis C virus. As to the kind of experiment: Antiviral activity against HCV infected in Huh5.2 cells assessed as inhibition of viral replication by luciferase reporter gene assay. The conditions noted are these: Huh-5-2. Type of data set: functional, organism-based, Hepacivirus hominis.
A short description of data set [2]: Cytotoxicity against human HuH5.2 cells. Type of data set: cell-based, Huh-5-2.
Data set [3] relates to Human immunodeficiency virus. The data set can be described thus: Antiviral activity against HIV assessed as inhibition of viral replication. The class given is functional, organism-based.
The nature of data set [4]: Selectivity ratio, ratio of CC50 for Huh5.2 cells to IC50 for HCV infected in Huh5.2 cells. Type of data set: cell-based. The conditions noted are these: human, Huh5.2 cells (CC50) and HCV-infected Huh5.2 cells (IC50).
The test system of data set [5] is Hepatitis C virus. As to the kind of experiment: Antiviral activity against HCV infected in Huh5.2 cells assessed as concentration required to inhibit viral replication without causing an antimetabolic effect. Type of data set: functional, Hepacivirus hominis.

Usually IC50 stands for the concentration that inhibits the measured activity by half. The CC50 is the concentration that lowers cell viability or growth by half. Read a low CC50 as greater toxicity to the cells.

Activity calls are given as the source filed them. No cut-off for these calls is given here.

`Cc1cn(Cc2cn(CP(=O)(O)O)nn2)c(=O)[nH]c1=O`: the concentration for half-maximal inhibition (IC50) with Hepatitis C virus [1] came out at 26 µM. The half-maximal cytotoxic concentration (CC50) in data set [2] was > 300 µM. Also, in data set [3], the outcome was inactive. The selectivity ratio in data set [4] was > 13.

Regarding `Cc1cn(Cc2cn(CCP(=O)(O)O)nn2)c(=O)[nH]c1=O`, in the data set with Hepatitis C virus [1], the IC50 was determined as 20 µM. The CC50 in data set [2] was > 300 µM. Also, the result in data set [3] was inactive. Besides, the selectivity ratio in data set [4] is > 15. The Imax in the data set on Hepatitis C virus [5] is given as 79.28%.

For `O=c1ccn(Cc2cn(CCP(=O)(O)O)nn2)c(=O)[nH]1`, the IC50 in the data set on Hepatitis C virus [1] turned out to be 16 µM. Also, the 50% cytotoxic concentration (CC50) in data set [2] is > 300 µM. The result in data set [3] was inactive. For the same compound, the selectivity ratio in data set [4] was > 20. For the same compound, in the data set on Hepatitis C virus [5], the Imax came out at 75.47%.

As to `Nc1ncnc2c1ncn2Cc1cn(CP(=O)(O)O)nn1`, the concentration for half-maximal inhibition (IC50) with Hepatitis C virus [1] was determined as 16 µM. The CC50 in data set [2] is > 300 µM. For the same compound, the result in data set [3] was inactive. In data set [4], the selectivity ratio is > 20. The Imax with Hepatitis C virus [5] is recorded as 80.65%.

For `O=c1ccn(Cc2cn(CP(=O)(O)O)nn2)c(=O)[nH]1`, the IC50 with Hepatitis C virus [1] amounted to 29 µM. The same compound gave a CC50 in data set [2] of 131 µM. In data set [3], the outcome was inactive. Further, the selectivity ratio in data set [4] stood at 4.42.

Regarding `Nc1ncnc2c1ncn2Cc1cn(CCP(=O)(O)O)nn1`, the IC50 in the data set with Hepatitis C virus [1] is > 35 µM. For the same compound, the midpoint of cytotoxicity in data set [2], the CC50, lay at 35 µM. Further, the result in data set [3] was inactive. Besides, the selectivity ratio in data set [4] is < 1.

Source of the values: ChEMBL document CHEMBL1287757, “Straightforward synthesis of triazoloacyclonucleotide phosphonates as potential HCV inhibitors” (Bioorg Med Chem Lett, 2010).
